Test results as given in US12128028B2, “Heterocyclic sulfonamide derivatives and pharmaceutical uses thereof” (METRION BIOSCIENCES LIMITED, priority 2018, dated 2024).

Each compound was assayed against human Kv1.3 (Homo sapiens (Human), UniProt P22001) (assay: Kv1.3 potency evaluation, automated patch clamp electrophysiology (QPatch HT) in CHO-Kv1.3 cells). Conditions: whole-cell QPatch HT, % inhibition of charge, step to +30 mV, four concentrations, N≥3 cells, read-out: hKv1.3 IC50.
Type: cell-based
How it was run: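 Automated whole-cell patch clamp in CHO cells stably expressing human Kv1.3; steps from −80 to +30 mV (500 ms) at 0.067 Hz. Four cumulative concentrations after vehicle (0.1-0.3% DMSO); charge inhibition vs vehicle fitted by four-parameter logistic for IC50, N≥3 cells.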

Sequence of human Kv1.3 (P22001 whole entry): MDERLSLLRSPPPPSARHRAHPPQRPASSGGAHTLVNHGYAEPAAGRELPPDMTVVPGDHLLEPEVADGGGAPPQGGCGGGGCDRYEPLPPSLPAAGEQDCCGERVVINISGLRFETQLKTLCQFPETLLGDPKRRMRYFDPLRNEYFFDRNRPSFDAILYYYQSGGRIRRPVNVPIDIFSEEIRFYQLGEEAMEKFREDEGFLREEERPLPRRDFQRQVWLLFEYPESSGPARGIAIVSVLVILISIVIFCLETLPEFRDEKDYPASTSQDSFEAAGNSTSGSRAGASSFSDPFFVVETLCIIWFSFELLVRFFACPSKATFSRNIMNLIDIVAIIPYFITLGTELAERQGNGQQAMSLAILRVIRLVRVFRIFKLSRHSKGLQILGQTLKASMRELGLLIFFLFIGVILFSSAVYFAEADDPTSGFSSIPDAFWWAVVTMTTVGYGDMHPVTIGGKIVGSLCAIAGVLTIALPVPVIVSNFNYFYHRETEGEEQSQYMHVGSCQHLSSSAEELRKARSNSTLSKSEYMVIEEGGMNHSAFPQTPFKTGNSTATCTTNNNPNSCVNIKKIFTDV

SMILES | IC50
C[C@]1(C(=O)NCc2ccccc2)CN=C(C23CC(N(Cc4ccc(C(F)(F)F)cc4)S(=O)(=O)c4ccc(F)cc4)(C2)C3)N1 (mixture of isomers) [Example 270] | 485 nM
CC1(C)N=C(C23CC(N(Cc4ccc(Cl)cc4)S(=O)(=O)C4CCOCC4)(C2)C3)N[C@H]1C(=O)NCCC(F)(F)F (mixture of isomers) [Example 272] | 524 nM
CC1(C)N=C(C23CC(N(Cc4ccc(Cl)cc4)S(C)(=O)=O)(C2)C3)N[C@H]1C(=O)NCCC(F)(F)F (mixture of isomers) [Example 274] | 559 nM
CC(NC(=O)[C@@]1(C)CN=C(C23CC(N(Cc4ccc(C(F)(F)F)cc4)S(=O)(=O)c4ccc(F)cc4)(C2)C3)N1)C1CCC1 (mixture of isomers) [Example 275] | 571 nM
CC1(C)N=C(C23CC(N(Cc4ccc(Cl)cc4)S(=O)(=O)CC(F)(F)F)(C2)C3)N[C@H]1C(=O)NCCC(F)(F)F (mixture of isomers) [Example 276] | 575 nM
C[C@]1(C(=O)NCCC2CCC2)CN=C(C23CC(N(Cc4ccc(C(F)(F)F)cc4)S(=O)(=O)c4ccc(F)cc4)(C2)C3)N1 (mixture of isomers) [Example 278] | 595 nM
CC1(C)CC(NC(=O)[C@@]2(C)CN=C(C34CC(N(Cc5ccc(C(F)(F)F)cc5)S(=O)(=O)c5ccc(F)cc5)(C3)C4)N2)C1 (mixture of isomers) [Example 280] | 615 nM
CC1(C)N=C(C23CC(N(Cc4ccc(Cl)c(F)c4)S(=O)(=O)c4ccccc4)(C2)C3)N[C@H]1C(=O)N1CCC1 (mixture of isomers) [Example 282] | 706 nM
CC1(C)N=C(C23CC(N(Cc4ccc(Cl)c(Cl)c4)S(=O)(=O)c4ccccc4)(C2)C3)N[C@H]1C(=O)N1CCC2(COC2)C1 (mixture of isomers) [Example 283] | 749 nM
C[C@@]1(C(=O)NCC2CCCCC2)CN=C(C23CC(N(Cc4ccc(C(F)(F)F)cc4)S(=O)(=O)c4ccc(F)cc4)(C2)C3)N1 (mixture of isomers) [Example 285] | 802 nM
CC1(C)N=C(C23CC(N(Cc4ccc(Cl)cc4)S(=O)(=O)c4cc(C(F)(F)F)ccc4O)(C2)C3)N[C@H]1C(=O)NCCC(F)(F)F (mixture of isomers) [Example 286] | 859 nM
CC1(C)N=C(C23CC(N(Cc4ccc(Cl)cc4)S(=O)(=O)C(C)(C)C)(C2)C3)N[C@H]1C(=O)NCCC(F)(F)F (mixture of isomers) [Example 287] | 976 nM
C[C@@]1(C(=O)Nc2ccccc2)CN=C(C23CC(N(Cc4ccc(C(F)(F)F)cc4)S(=O)(=O)c4ccc(F)cc4)(C2)C3)N1 (mixture of isomers) [Example 288] | 1020 nM
CC1(C)CC(CNC(=O)[C@@]2(C)CN=C(C34CC(N(Cc5ccc(C(F)(F)F)cc5)S(=O)(=O)c5ccc(F)cc5)(C3)C4)N2)C1 (mixture of isomers) [Example 289] | 1060 nM
C[C@]1(C(=O)NCC2CCCCC2)CN=C(C23CC(N(Cc4ccc(C(F)(F)F)cc4)S(=O)(=O)c4ccc(F)cc4)(C2)C3)N1 (mixture of isomers) [Example 290] | 1060 nM
CC1(C)N=C(C23CC(N(Cc4ccc(Cl)cc4)S(=O)(=O)c4ncc[nH]4)(C2)C3)N[C@H]1C(=O)NCCC(F)(F)F (mixture of isomers) [Example 291] | 1120 nM
CC1(C)N=C(C23CC(N(Cc4ccc(Cl)cc4)S(=O)(=O)c4ccccc4C(N)=O)(C2)C3)N[C@H]1C(=O)NCCC(F)(F)F (mixture of isomers) [Example 292] | 2950 nM
C[C@]1(C(=O)Nc2ccccc2)CN=C(C23CC(N(Cc4ccc(C(F)(F)F)cc4)S(=O)(=O)c4ccc(F)cc4)(C2)C3)N1 (mixture of isomers) [Example 293] | 4080 nM
CC1(C)N=C(C23CC(N(Cc4ccc(Cl)cc4)S(=O)(=O)CCO)(C2)C3)N[C@H]1C(=O)NCCC(F)(F)F (mixture of isomers) [Example 294] | 10500 nM
CC1(C)N=C(C23CC(N(Cc4ccc(Cl)cc4)S(=O)(=O)c4ccc[nH]c4=O)(C2)C3)N[C@H]1C(=O)NCCC(F)(F)F (mixture of isomers) [Example 295] | 21400 nM
CC1(C)N=C(C23CC(N(Cc4ccc(C(F)(F)F)cc4)S(=O)(=O)c4ccc(F)cc4)(C2)C3)NC1C(=O)NCC1(O)CCC1 (stereo not shown) [Example 271] | 494 nM
CCCC1(C(=O)NCC2CCC2)CN=C(C23CC(N(Cc4ccc(C(F)(F)F)cc4)S(=O)(=O)c4ccc(F)cc4)(C2)C3)N1 (stereo not shown) [Example 273] | 552 nM
CN(C)C(=O)[C@H]1CN=C(C23CC(N(Cc4ccc(C(F)(F)F)cc4)S(=O)(=O)c4ccc(F)cc4)(C2)C3)N1 [Example 277] | 593 nM
O=C(NCC1CCC1)C1(Cc2ccccc2)CN=C(C23CC(N(Cc4ccc(C(F)(F)F)cc4)S(=O)(=O)c4ccc(F)cc4)(C2)C3)N1 (stereo not shown) [Example 279] | 608 nM
CC([C@@H]1CN=C(C23CC(N(Cc4ccc(C(F)(F)F)cc4)S(=O)(=O)c4ccc(F)cc4)(C2)C3)N1)N(C)C (stereo partly shown) [Example 281] | 632 nM

Results, then the compound that gave them:

IC50 | SMILES
404 nM | CC1(C)CCN(C(=O)[C@@]2(C)CN=C(C34CC(N(Cc5ccc(C(F)(F)F)cc5)S(=O)(=O)c5ccc(F)cc5)(C3)C4)N2)C1 (mixture of isomers) [Example 264]
408 nM | CC1N=C(C23CC(N(Cc4ccc(C(F)(F)F)cc4)S(=O)(=O)c4ccc(F)cc4)(C2)C3)N[C@@]1(C)C(=O)NCCC(F)(F)F (mixture of isomers) [Example 265]
424 nM | CC1(CNC(=O)[C@@]2(C)CN=C(C34CC(N(Cc5ccc(C(F)(F)F)cc5)S(=O)(=O)c5ccc(F)cc5)(C3)C4)N2)CCC1 (mixture of isomers) [Example 267]
441 nM | C[C@]1(C(=O)NC2CCCCC2)CN=C(C23CC(N(Cc4ccc(C(F)(F)F)cc4)S(=O)(=O)c4ccc(F)cc4)(C2)C3)N1 (mixture of isomers) [Example 268]
481 nM | CN(C)C(=O)[C@@]1(C)CN=C(C23CC(N(Cc4ccc(C(F)(F)F)cc4)S(=O)(=O)c4ccc(F)cc4)(C2)C3)N1 (mixture of isomers) [Example 269]
35 nM | CC1(C)N=C(C23CC(N(Cc4ccc(Cl)c(F)c4)S(=O)(=O)c4ccccc4)(C2)C3)N[C@H]1C(=O)NC12CC(C1)C2 [Example 1, (R)-N-(Bicyclo[1.1.1]pentan-1-yl)-2-(3-(N-(4-chloro-3-fluorobenzyl)phenylsulfonamido)bicyclo[1.1.1]pentan-1-yl)-4,4-dimethyl-4,5-dihydro-1H-imidazole-5-carboxamide]
138 nM | CC1(C)N=C(C23CC(N(Cc4ccc(Cl)c(Cl)c4)S(=O)(=O)c4ccccc4)(C2)C3)N[C@H]1C(=O)NCC(F)(F)C(F)(F)F [Example 5]
66 nM | CC1(C)N=C(C23CC(N(Cc4ccc(F)cc4)S(=O)(=O)c4ccccc4)(C2)C3)NC1C(=O)NCCC(F)(F)F (stereo not shown) [Example 97]
88 nM | CC1(C)N=C(C23CC(N(Cc4ccc(C(F)(F)F)cc4)S(=O)(=O)c4ccc(F)cc4)(C2)C3)N[C@H]1C(=O)NCC1(F)CCC1 [Example 145]
89 nM | CC1(C)N=C(C23CC(N(Cc4ccc(Cl)cc4)S(=O)(=O)c4ccccc4)(C2)C3)NC1C(=O)NCCC(F)(F)F (stereo not shown) [Example 148]
94 nM | CC1(C)N=C(C23CC(N(Cc4ccc(C(F)(F)F)cc4)S(=O)(=O)c4ccc(F)cc4)(C2)C3)NC1C(=O)N1CCCCC1 (stereo not shown) [Example 157]
98 nM | CC1(C)N=C(C23CC(N(Cc4ccc(C(F)(F)F)cc4)S(=O)(=O)c4ccc(F)cc4)(C2)C3)NC1C(=O)NCC1CC1(F)F (stereo not shown) [Example 161]
99 nM | CC1(C)N=C(C23CC(N(Cc4ccc(C(F)(F)F)cc4)S(=O)(=O)c4ccc(F)cc4)(C2)C3)NC1C(=O)NCC1(C#N)CCC1 (stereo not shown) [Example 164]
108 nM | CCCC1(C(=O)NC(C)C)CN=C(C23CC(N(Cc4ccc(C(F)(F)F)cc4)S(=O)(=O)c4ccc(F)cc4)(C2)C3)N1 (stereo not shown) [Example 182]
110 nM | CC1(C)N=C(C23CC(N(Cc4ccc(C(F)(F)F)cc4)S(=O)(=O)c4ccc(F)cc4)(C2)C3)NC1C(=O)NCC1CC(F)(F)C1 (stereo not shown) [Example 186]
115 nM | CC1(C)N=C(C23CC(N(Cc4ccc(C(F)(F)F)cc4)S(=O)(=O)c4ccc(F)cc4)(C2)C3)NC1C(=O)NCC1CCC1 (stereo not shown) [Example 192]
115 nM | CC1(C)N=C(C23CC(N(Cc4ccc(C(F)(F)F)cc4)S(=O)(=O)c4ccc(F)cc4)(C2)C3)NC1C(=O)NCCC(F)(F)F (stereo not shown) [Example 193]
143 nM | CC(C)NC(=O)C1NC(C23CC(N(Cc4ccc(C(F)(F)F)cc4)S(=O)(=O)c4ccc(F)cc4)(C2)C3)=NC1(C)C (stereo not shown) [Example 208]
169 nM | CC1(C)N=C(C23CC(N(Cc4ccc(C(F)(F)F)cc4)S(=O)(=O)c4ccccc4)(C2)C3)NC1C(=O)NCCC(F)(F)F (stereo not shown) [Example 220]
178 nM | O=C(NCCC(F)(F)F)[C@@H]1NC(C23CC(N(Cc4ccc(C(F)(F)F)cc4)S(=O)(=O)c4ccc(F)cc4)(C2)C3)=NC12CC2 [Example 224]
199 nM | O=C(NCC1CCC1)C1NC(C23CC(N(Cc4ccc(C(F)(F)F)cc4)S(=O)(=O)c4ccc(F)cc4)(C2)C3)=NC12CCC2 (stereo not shown) [Example 229]
208 nM | CC1(NC(=O)C2NC(C34CC(N(Cc5ccc(C(F)(F)F)cc5)S(=O)(=O)c5ccc(F)cc5)(C3)C4)=NC2(C)C)CCC1 (stereo not shown) [Example 232]
213 nM | CC1(C)N=C(C23CC(N(Cc4ccc(C(F)(F)F)cc4)S(=O)(=O)c4ccc(F)cc4)(C2)C3)NC1C(=O)N1CCC(F)(F)CC1 (stereo not shown) [Example 236]
217 nM | COC1(CNC(=O)C2NC(C34CC(N(Cc5ccc(C(F)(F)F)cc5)S(=O)(=O)c5ccc(F)cc5)(C3)C4)=NC2(C)C)CCC1 (stereo not shown) [Example 237]
230 nM | O=C(NCC1CCC1)C1NC(C23CC(N(Cc4ccc(C(F)(F)F)cc4)S(=O)(=O)c4ccc(F)cc4)(C2)C3)=NC12CC2 (stereo not shown) [Example 239]
400 nM | NC(=O)C1(Cc2ccccc2)CN=C(C23CC(N(Cc4ccc(C(F)(F)F)cc4)S(=O)(=O)c4ccc(F)cc4)(C2)C3)N1 (stereo not shown) [Example 263]
415 nM | CC(C)C1(C(=O)NCC2CCC2)CN=C(C23CC(N(Cc4ccc(C(F)(F)F)cc4)S(=O)(=O)c4ccc(F)cc4)(C2)C3)N1 (stereo not shown) [Example 266]
